This experiment has as its system ALP in NHAC (normal human articular chondrocytes). Description: Alkaline Phosphatase (ALP) activity assay: ALP staining and quantitation in NHACs (prevention of chondrocyte hypertrophy). The experiment is classed as cell-based. The conditions noted are these: Chondrocyte, 288 h, human IL-1 beta 10 ng/mL, 12 days; for IC50: Fast Blue RR staining, high content imaging; for Emax: read-out: ALP in NHAC (% Efficacy). The protocol: The compounds of the present invention were evaluated in the Alkaline Phosphatase (ALP) activity assay to determine the ability of the compounds to prevent chondrocyte hypertrophy in normal human articular chondrocytes (NHACs).
Normal human articular chondrocytes (NHACs) were purchased from PromoCell (Heidelberg, Germany) and grown in Chondrocyte Growth Medium (CGM; Lonza, Walkersville, Md.).
NHACs were expanded in Chondrocyte Growth Medium (CGM) from Lonza until they reached a 60-80% confluency. To initiate differentiation, 7,500 cells were plated/well with indicated test compound dose in 384-well Cell Carrier Ultra plates (Perkin Elmer) with DMEM (SH30022—HyClone) containing 10% FBS (35-015-CV—Corning), 1% Pen/Strep antibiotics (SV30010—HyClone), and 1% Normocin (50 mg/mL—InvivoGen). Cells with test compounds were incubated at 37° C., 5% CO2 for 5 hours and then added human IL-1 beta (AF-200-1B—Peprotech) to each well at a final concentration of 10 ng/mL and incubated at 37° C., 5% CO2 for 12 days.
To detect the presence of hypertrophic cells, NHACs were fixed with 4% paraformaldehyde and Hoechst 33342 (Invitrogen) dye for 30 minutes, rinsed in PBS, then stained with Fast Blue RR Salt (F0500—Sigma) with Naphthol AS-MX Phosphate Alkaline Solution, 0.25% (855—Sigma-Aldrich).
The staining was imaged by fluoresecent microscopy, using the 561 nm wavelength, and/or quantified by high content imaging with the ImageXpress Confocal (Molecular Devices, Sunnyvale, CA). Data analyses were performed with a customized multiwavelength cell-scoring application The activity of the compounds of the present invention in the ALP assay is summarized in Table 2.

Data on 20 molecules can be found in patent US12365692B2, “6-hydroxy-8-oxatricyclo[3.2.1.02,4]octane-2-carboxamide derivatives for inducing chondrogenesis for treating joint damage” (NOVARTIS AG, priority 2018, dated 2025).

For `O=C(Nc1cc(C(F)(F)F)ccn1)[C@]12C[C@@]1(c1ccnc(F)c1)[C@H]1O[C@@H]2C[C@@H]1O` (racemic) [Example 1, rac-(1R,2R,4S,5R,6S)-4-(2-fluoropyridin-4-yl)-6-hydroxy-N-(4-(trifluoromethyl)pyridin-2-yl)-8-oxatricyclo[3.2.1.02,4]octane-2-carboxamide], the IC50 – broadly, the midpoint of a concentration-inhibition curve – was over 30 µM and the Emax came out at 28%.
`O=C(Nc1ccc(C(F)(F)F)c(F)c1)[C@]12C[C@@]1(c1ccnc(F)c1)[C@H]1O[C@@H]2C[C@@H]1O` (racemic) [Example 2, rac-(1R,2R,4S,5R,6S)-N-(3-fluoro-4-(trifluoromethyl)phenyl)-4-(2-fluoropyridin-4-yl)-6-hydroxy-8-oxatricyclo[3.2.1.02,4]octane-2-carboxamide]: the IC50 is over 30 µM and the Emax was 28%.
Taken in the same sequence, the figures for `O=C(Nc1ccc(C(F)(F)F)c(Cl)c1)[C@]12C[C@@]1(c1ccnc(F)c1)[C@H]1O[C@@H]2C[C@@H]1O` (racemic) [Example 3, rac-(1R,2R,4S,5R,6S)—N-(3-chloro-4-(trifluoromethyl)phenyl)-4-(2-fluoropyridin-4-yl)-6-hydroxy-8-oxatricyclo[3.2.1.02,4]octane-2-carboxamide] were 12 µM and 71%.
`O=C(Nc1cc(C(F)(F)F)cc(Cl)n1)[C@]12C[C@@]1(c1ccnc(F)c1)[C@H]1O[C@@H]2C[C@@H]1O` (racemic) [Example 4, rac-(1R,2R,4S,5R,6S)—N-(6-chloro-4-(trifluoromethyl)pyridin-2-yl)-4-(2-fluoropyridin-4-yl)-6-hydroxy-8-oxatricyclo[3.2.1.02,4]octane-2-carboxamide]: the IC50 is over 30 µM and the Emax is 0%.
Regarding `O=C(Nc1cc(C(F)(F)F)c(Cl)cn1)[C@]12C[C@@]1(c1ccnc(F)c1)[C@H]1O[C@@H]2C[C@@H]1O` (racemic) [Example 5, rac-(1R,2R,4S,5R,6S)-N-(5-chloro-4-(trifluoromethyl)pyridin-2-yl)-4-(2-fluoropyridin-4-yl)-6-hydroxy-8-oxatricyclo[3.2.1.02,4]octane-2-carboxamide], the IC50 was over 30 µM and the Emax is 38%.
Taken in the same sequence, the figures for `O=C(Nc1cc(C(F)(F)F)cc(C2CC2)n1)[C@]12C[C@@]1(c1ccnc(F)c1)[C@H]1O[C@@H]2C[C@@H]1O` (racemic) [Example 6, rac-(1R,2R,4S,5R,6S)—N-(6-cyclopropyl-4-(trifluoromethyl)pyridin-2-yl)-4-(2-fluoropyridin-4-yl)-6-hydroxy-8-oxatricyclo[3.2.1.02,4]octane-2-carboxamide] were over 30 µM and 9%.
Taken in the same sequence, the figures for `Cc1cc(C(F)(F)F)cc(NC(=O)[C@]23C[C@@]2(c2ccnc(F)c2)[C@H]2O[C@@H]3C[C@@H]2O)n1` (racemic) [Example 7, rac-(1R,2R,4S,5R,6S)-4-(2-fluoropyridin-4-yl)-6-hydroxy-N-(6-methyl-4-(trifluoromethyl)pyridin-2-yl)-8-oxatricyclo[3.2.1.02,4]octane-2-carboxamide] were over 30 µM and 0%.
On to `CCOc1cc(C(F)(F)F)cc(NC(=O)[C@]23C[C@@]2(c2ccnc(F)c2)[C@H]2O[C@@H]3C[C@@H]2O)n1` (racemic) [Example 8, rac-(1R,2R,4S,5R,6S)—N-(6-ethoxy-4-(trifluoromethyl)pyridin-2-yl)-4-(2-fluoropyridin-4-yl)-6-hydroxy-8-oxatricyclo[3.2.1.02,4]octane-2-carboxamide], for which the IC50 is over 30 µM and the Emax came to 26%.
Taken in the same sequence, the figures for `O=C(Nc1cccc(C(F)(F)F)c1)[C@]12C[C@@]1(c1ccnc(F)c1)[C@H]1O[C@@H]2C[C@@H]1O` (racemic) [Example 9, rac-(1R,2R,4S,5R,6S)-4-(2-fluoropyridin-4-yl)-6-hydroxy-N-(3-(trifluoromethyl)phenyl)-8-oxatricyclo[3.2.1.02,4]octane-2-carboxamide] were over 30 µM and 32%.
Taken in the same sequence, the figures for `Cc1c(NC(=O)[C@]23C[C@@]2(c2ccnc(F)c2)[C@H]2O[C@@H]3C[C@@H]2O)cccc1C(F)(F)F` (racemic) [Example 10, rac-(1R,2R,4S,5R,6S)-4-(2-fluoropyridin-4-yl)-6-hydroxy-N-(2-methyl-3-(trifluoromethyl)phenyl)-8-oxatricyclo[3.2.1.02,4]octane-2-carboxamide] were over 30 µM and 6%.
For `Cc1ccc(NC(=O)[C@]23C[C@@]2(c2ccnc(F)c2)[C@H]2O[C@@H]3C[C@@H]2O)cc1C(F)(F)F` (racemic) [Example 11, rac-(1R,2R,4S,5R,6S)-4-(2-fluoropyridin-4-yl)-6-hydroxy-N-(4-methyl-3-(trifluoromethyl)phenyl)-8-oxatricyclo[3.2.1.02,4]octane-2-carboxamide], the IC50 was over 30 µM and the Emax is 0%.
`Cc1cc(NC(=O)[C@]23C[C@@]2(c2ccnc(F)c2)[C@H]2O[C@@H]3C[C@@H]2O)cc(C(F)(F)F)c1` (racemic) [Example 12, rac-(1R,2R,4S,5R,6S)-4-(2-fluoropyridin-4-yl)-6-hydroxy-N-(3-methyl-5-(trifluoromethyl)phenyl)-8-oxatricyclo[3.2.1.02,4]octane-2-carboxamide]: the IC50 is over 30 µM and the Emax worked out at 21%.
Taken in the same sequence, the figures for `Cc1ccc(C(F)(F)F)cc1NC(=O)[C@]12C[C@@]1(c1ccnc(F)c1)[C@H]1O[C@@H]2C[C@@H]1O` (racemic) [Example 13, rac-(1R,2R,4S,5R,6S)-4-(2-fluoropyridin-4-yl)-6-hydroxy-N-(2-methyl-5-(trifluoromethyl)phenyl)-8-oxatricyclo[3.2.1.02,4]octane-2-carboxamide] were over 30 µM and 40%.
Turning to `O=C(Nc1cccc(C(F)(F)F)c1F)[C@]12C[C@@]1(c1ccnc(F)c1)[C@H]1O[C@@H]2C[C@@H]1O` (racemic) [Example 14, rac-(1R,2R,4S,5R,6S)—N-(2-fluoro-3-(trifluoromethyl)phenyl)-4-(2-fluoropyridin-4-yl)-6-hydroxy-8-oxatricyclo[3.2.1.02,4]octane-2-carboxamide], the concentration for half-maximal inhibition (IC50) was over 30 µM and the Emax came to 8%.
Taken in the same sequence, the figures for `O=C(Nc1ccc(F)c(C(F)(F)F)c1)[C@]12C[C@@]1(c1ccnc(F)c1)[C@H]1O[C@@H]2C[C@@H]1O` (racemic) [Example 15, rac-(1R,2R,4S,5R,6S)—N-(4-fluoro-3-(trifluoromethyl)phenyl)-4-(2-fluoropyridin-4-yl)-6-hydroxy-8-oxatricyclo[3.2.1.02,4]octane-2-carboxamide] were over 30 µM and 5%.
Taken in the same sequence, the figures for `O=C(Nc1cc(F)cc(C(F)(F)F)c1)[C@]12C[C@@]1(c1ccnc(F)c1)[C@H]1O[C@@H]2C[C@@H]1O` (racemic) [Example 16, rac-(1R,2R,4S,5R,6S)—N-(3-fluoro-5-(trifluoromethyl)phenyl)-4-(2-fluoropyridin-4-yl)-6-hydroxy-8-oxatricyclo[3.2.1.02,4]octane-2-carboxamide] were over 30 µM and 34%.
Taken in the same sequence, the figures for `O=C(Nc1cc(C(F)(F)F)ccc1F)[C@]12C[C@@]1(c1ccnc(F)c1)[C@H]1O[C@@H]2C[C@@H]1O` (racemic) [Example 17, rac-(1R,2R,4S,5R,6S)—N-(2-fluoro-5-(trifluoromethyl)phenyl)-4-(2-fluoropyridin-4-yl)-6-hydroxy-8-oxatricyclo[3.2.1.02,4]octane-2-carboxamide] were over 30 µM and 17%.
Regarding `O=C(Nc1ccc(Cl)c(C(F)(F)F)c1)[C@]12C[C@@]1(c1ccnc(F)c1)[C@H]1O[C@@H]2C[C@@H]1O` (racemic) [Example 18, rac-(1R,2R,4S,5R,6S)—N-(4-chloro-3-(trifluoromethyl)phenyl)-4-(2-fluoropyridin-4-yl)-6-hydroxy-8-oxatricyclo[3.2.1.02,4]octane-2-carboxamide], the IC50 was over 30 µM and the Emax stood at 25%.
Taken in the same sequence, the figures for `O=C(Nc1cc(Cl)cc(C(F)(F)F)c1)[C@]12C[C@@]1(c1ccnc(F)c1)[C@H]1O[C@@H]2C[C@@H]1O` (racemic) [Example 19, rac-(1R,2R,4S,5R,6S)—N-(3-chloro-5-(trifluoromethyl)phenyl)-4-(2-fluoropyridin-4-yl)-6-hydroxy-8-oxatricyclo[3.2.1.02,4]octane-2-carboxamide] were over 30 µM and 0%.
`COc1cc([C@@]23C[C@]2(C(=O)Nc2cc(C(F)(F)F)ccn2)[C@H]2C[C@H](O)[C@@H]3O2)ccn1` (racemic) [Example 20, rac-(1R,2R,4S,5R,6S)-6-hydroxy-4-(2-methoxypyridin-4-yl)-N-(4-(trifluoromethyl)pyridin-2-yl)-8-oxatricyclo[3.2.1.02,4]octane-2-carboxamide]: the IC50 was over 30 µM and the Emax was found to be 24%.
